Article PMC9381509, “In-vivo pharmacokinetic studies of Dolutegravir loaded spray dried Chitosan nanoparticles as milk admixture for paediatrics infected with HIV” (Scientific Reports, 2022)
In brackets after ≈: the same amount, converted by molar mass. Read-outs that look alike come from different tables or passages of the source.

How the values were obtained:
[1] = tested on: blood cells; assay: Haematological analysis (complete blood cell count) of treated animals; format: in vivo; conditions: Balb-C mice; for Basophils / Eosinophil / HCT / HGB / Lymphocyte / MCH / MCHC / MCV / MPV / Monocytes / Neutrophil / PCT / PDW / PLT / RBC / RDW-CV / RDW-SD / WBC: blood 28 h after administration
Method: The counting was made following the method of Beckman Coulter. It measures the changes in electrical resistance produced by non-conductive particles suspended in an electrolyte. The blood sample from the test animals was collected in EDTA tubes and was further suspended through a small orifice along with an electric current. At the sensing end, the suspended particle displaces its volume of electrolyte which was measured as the voltage pulse by the Beckman Coulter. The height of the voltage pulse in proportion to the volume of the blood cell. The white blood cells were quantified based on the VCS technology, where the individual cell volume (V), conductivity (C), and laser light scatter (S) were measured and the scattergram plotted the cell based on the above measurements.

[2] = parameters: method as in earlier work; conditions: mice, single oral administration as suspension, plasma; ref 27 (Lee et al.); cited from earlier work
[3] = In vivo plasma pharmacokinetics in Balb-C mice (HPLC); conditions: for AUC(0-t): read-out: AUC0–24 h; for k el: read-out: Ke (converted)
Description: The pharmaceutical grade working standards of Dolutegravir were obtained as a gift from MSN Laboratories Hyderabad, India. The standard calibration of the pure drug in the mobile phase (Water: Acetonitrile: Methanol in 20:40:40 ratio with 0.2% formic acid) and mice plasma was plotted using the developed method. The plasma samples of untreated normal Balb/c mice were obtained from the Central Animal Facility, SASTRA Deemed University (Approval ID: 585/IAEC/RPP), and the plasma samples were spiked with known concentrations (1, 2, 3, 4, 5 and 10 µg/mL) of DTG and allowed to incubate at room temperature for 15 min. The detection was carried out at 260 nm with an injection volume of 20 μL, wherein the flow rate of the mobile phase was maintained at 1.0 mL/min at the column temperature of 35 °C. Moreover, the validation of the analytical method was also performed in accordance with the procedure referred to in the International Council on Harmonization (ICH) guidelines.
(§1) After validating the developed HPLC method, the same was utilized to quantify the drug present in the plasma and organ (lungs, liver, kidney, heart, brain, and uterus) samples collected at predetermined time points. A total of 114 animals (25–30 g) were acquired from the Central Animal Facility (CAF), SASTRA University, Thanjavur after obtaining the ethical approval from Institutional Animal Ethics Committee (IAEC). The animals were randomly divided into four groups (n = 6) for this study. All animals were housed in individual cages in a temperature-controlled facility. The surgical procedures were approved by IAEC at SASTRA University (585/SASTRA/IAEC/RPP). The experiments were performed following the guidelines issued by the Committee for the Purpose of Control and Supervision of Experiments on animals (CPCSEA), Ministry of Environment and Forest, Government of India and Animal Research: Reporting of In Vivo Experiments (ARRIVE). The 2 groups of mice were orally treated with pure DTG and DTG-loaded Chitosan NPs at the dose equivalent to 10 mg/kg[41] along with milk. The 3rd group of animals was treated with DTG at the same dose through an intravenous route to elucidate the absolute bioavailability and the 4th group of animals was reserved as untreated control for comparison. The blood and organ samples were withdrawn from all the experimental mice at 0.5 h, 3.5 h, 7 h, 14 h, 21 h, and 28 h after euthanizing the animal using CO2 inhalation. The concentration of the drug in each sample was determined by the developed HPLC method, followed by the pharmacokinetic parameters and biodistribution pattern evaluation.

[4] = In-vitro drug release in 0.1 N HCl media by dialysis bag method; format: physicochemical; conditions: 0.1 N HCl medium pH 1.2, dialysis bag, 37 °C
Method: The in vitro drug release study of the DTG-loaded Chitosan NPs was compared with the pure DTG in 0.1 N HCl pH 1.2 by dialysis bag method (Dialysis membrane Himedia, cut-off value—12–14 kDa). About 10 mg of pure drug and a similar dose equivalent amount of nanoparticles were taken for the drug release experiments. The test samples were mixed with 0.5 mL of the corresponding media, placed inside the dialysis bag, and immersed in 10 mL media in a vial. The temperature and magnetic stirring speed of the sample were retained at 37 °C ± 2 °C and 200 rpm, respectively throughout the 24 h study period. At every predetermined time point, the 10 mL samples were collected and immediately replaced with the fresh corresponding medium. The concentration of the drug in each sample was quantified by a UV–Visible spectrophotometer. The UV visible spectrophotometer (UV 1800, Shimadzu, Japan) was initialized with λmax of 260 nm. The absorbance of the test solution was recorded using the quartz cuvette (volume-3.5 mL, path length-1.5 cm) and the calculations were made based on the standard calibration curve by following the Beer Lamberts law. […] The drug release modelling was analysed using DD solver Software[36].

[5] = cited from earlier work
[6] = Organ biodistribution of DTG in mice (HPLC); format: in vivo; conditions: mouse, Balb-C mice
Description: as §1

[7] = mouse, plasma, 10 mg/kg, intravenous route
[8] = mouse, plasma, oral dose equivalent to 10 mg/kg along with milk
[9] = plasma, oral dose equivalent to 10 mg/kg along with milk

Q: For `C[C@@H]1CCO[C@H]2Cn3cc(C(=O)NCc4ccc(F)cc4F)c(=O)c(O)c3C(=O)N12` [DTG, Dolutegravir], which Basophils ([1]; IV) is on record?
A: 0.01 ± 0.02 10^3/µL

Q: What about the Eosinophil ([1]; IV) of the same compound?
A: 0.06 ± 0.08 10^3/µL

Q: What about the HCT ([1]; IV) of the same compound?
A: 55.83 ± 17.67%

Q: And the HGB ([1]; IV)?
A: 13.70 ± 2.95 g/dL

Q: What about the Lymphocyte ([1]; IV) of the same compound?
A: 12.83 ± 8.46 10^3/µL

Q: And the MCH ([1]; IV)?
A: 16.23 ± 1.46 pg

Q: And the MCHC ([1]; IV)?
A: 25.27 ± 3.33 g/dL

Q: What about the MCV ([1]; IV) of the same compound?
A: 64.47 ± 2.75 fL

Q: And the MPV ([1]; IV)?
A: 6.03 ± 0.15 fL

Q: What about the Monocytes ([1]; IV) of the same compound?
A: 0.10 ± 0.07 10^3/µL

Q: What about the Neutrophil ([1]; IV) of the same compound?
A: 5.15 ± 1.74 10^3/µL

Q: What about the PCT ([1]; IV) of the same compound?
A: 0.50 ± 0.18%

Q: And the PDW ([1]; IV)?
A: 15.23 ± 0.32

Q: And the PLT ([1]; IV)?
A: 617.00 ± 27.89 10^3/µL

Q: What about the RBC ([1]; IV) of the same compound?
A: 8.60 ± 2.47 10^6/µL

Q: And the RDW-CV ([1]; IV)?
A: 15.37 ± 1.11%

Q: What about the RDW-SD ([1]; IV) of the same compound?
A: 40.60 ± 4.25 fL

Q: What about the WBC ([1]; IV) of the same compound?
A: 18.14 ± 10.24 10^3/µL

Q: What about the Basophils ([1]; oral with milk) of the same compound?
A: 0.00 10^3/µL

Q: And the Eosinophil ([1]; oral with milk)?
A: 0.04 ± 0.03 10^3/µL

Q: What about the HCT ([1]; oral with milk) of the same compound?
A: 63.77 ± 1.96%

Q: And the HGB ([1]; oral with milk)?
A: 15.10 ± 0.72 g/dL

Q: And the Lymphocyte ([1]; oral with milk)?
A: 12.30 ± 1.67 10^3/µL

Q: And the MCH ([1]; oral with milk)?
A: 15.57 ± 0.15 pg

Q: What about the MCHC ([1]; oral with milk) of the same compound?
A: 23.67 ± 0.15 g/dL

Q: And the MCV ([1]; oral with milk)?
A: 65.90 ± 4.10 fL

Q: And the MPV ([1]; oral with milk)?
A: 5.97 ± .06 fL

Q: And the Monocytes ([1]; oral with milk)?
A: 0.15 ± 0.06 10^3/µL

Q: What about the Neutrophil ([1]; oral with milk) of the same compound?
A: 5.32 ± 1.71 10^3/µL

Q: And the PCT ([1]; oral with milk)?
A: 0.52 ± 0.07%

Q: What about the PDW ([1]; oral with milk) of the same compound?
A: 15.17 ± 0.15

Q: And the PLT ([1]; oral with milk)?
A: 674.67 ± 42.91 10^3/µL

Q: And the RBC ([1]; oral with milk)?
A: 9.69 ± 0.48 10^6/µL

Q: And the RDW-CV ([1]; oral with milk)?
A: 15.47 ± 1.58%

Q: And the RDW-SD ([1]; oral with milk)?
A: 41.73 ± .90 fL

Q: What about the WBC ([1]; oral with milk) of the same compound?
A: 17.81 ± 3.38 10^3/µL

Q: What about the “toxicity to the blood cells (haematology versus untreated control)” value ([1]; oral and IV administration, no statistically significant difference to control) of the same compound?
A: non-toxic to the blood cells

Q: And the Cmax [2]?
A: 50000 ng/mL

Q: What about the Cmax ([3]; Balb-C, mouse, plasma, iv, 10 mg/kg, plasma, 10 mg/kg, intravenous route, read-out: Cmax) of the same compound?
A: 29300 ± 4010 ng/mL

Q: And the Cmax ([3]; Balb-C, mouse, plasma, po, 10 mg/kg, plasma, oral dose equivalent to 10 mg/kg along with milk, read-out: Cmax)?
A: 29300 ± 4010 ng/mL

Q: What about the MRT [3, 7] of the same compound?
A: 12.07 ± 0.05 h

Q: What about the Tmax [3, 7] of the same compound?
A: 7 h

Q: What about the half-life [3, 7] of the same compound?
A: 10.5 ± 1.1 h

Q: And the AUC(0-t) [3, 7]?
A: 411000 ± 91000 ng·h/mL

Q: And the clearance ([3]; mouse, plasma, 10 mg/kg, intravenous route, read-out: Clearance (converted))?
A: 8.17 mL/min

Q: And the k el [3, 7]?
A: 1.81e-05 s⁻¹

Q: And the Vd ([3]; mouse, plasma, 10 mg/kg, intravenous route, read-out: Vd)?
A: 1.87 ± 0.81 L/kg

Q: What about the AUC ([3]; mouse, plasma, 10 mg/kg, oral) of the same compound?
A: 405000 ± 7000 ng·h/mL

Q: What about the MRT [3, 8] of the same compound?
A: 10.1 ± 0.93 h

Q: And the Tmax [3, 8]?
A: 7 h

Q: What about the half-life [3, 8] of the same compound?
A: 11.7 ± 1.6 h

Q: What about the AUC(0-t) [3, 8] of the same compound?
A: 405000 ± 7000 ng·h/mL

Q: And the k el [3, 8]?
A: 1.64e-05 s⁻¹

Q: And the “volume of distribution (Vd)” value ([3]; orally administered)?
A: 4.36 ± 0.78 L

Q: And the Ka ([3]; plasma, 10 mg/kg, intravenous route)?
A: 0.26 h⁻¹

Q: And the Cmax [3, 9]?
A: 30150 ± 8060 ng/mL

Q: And the Ka [3, 9]?
A: 0.48 h⁻¹

Q: What about the Vd [3, 9] of the same compound?
A: 4.36 ± 0.78 L/kg

Q: And the clearance [3, 9]?
A: 8 ± 5.5 mL/min

Q: And the “time taken to release 80% of the drug (T80)” value [4]?
A: 20 h

Q: What about the aqueous solubility ([5]; 25 °C, no ref printed at the value) of the same compound?
A: 95 µg/mL (≈ 227 µM)

Q: And the BCS class ([5]; ref not given)?
A: BCS class II

Q: What about the AUC ([6]; brain, IV, 10 mg/kg, read-out: AUC of biodistribution of DTG in brain) of the same compound?
A: 2400 ± 330 ng·h/mL

Q: And the AUC ([6]; brain, oral with milk, 10 mg/kg equivalent, read-out: AUC of biodistribution of DTG in brain)?
A: 2600 ± 500 ng·h/mL

Q: What about the AUC ([6]; heart, IV, 10 mg/kg, read-out: AUC of biodistribution of DTG in heart) of the same compound?
A: 2000 ± 380 ng·h/mL

Q: And the AUC ([6]; heart, oral with milk, 10 mg/kg equivalent, read-out: AUC of biodistribution of DTG in heart)?
A: 2100 ± 400 ng·h/mL

Q: And the AUC ([6]; kidney, IV, 10 mg/kg, read-out: AUC of biodistribution of DTG in kidney)?
A: 3800 ± 1300 ng·h/mL

Q: What about the AUC ([6]; kidney, oral with milk, 10 mg/kg equivalent, read-out: AUC of biodistribution of DTG in kidney) of the same compound?
A: 2200 ± 400 ng·h/mL

Q: What about the AUC ([6]; liver, IV, 10 mg/kg, read-out: AUC of biodistribution of DTG in liver) of the same compound?
A: 4600 ± 1200 ng·h/mL

Q: And the AUC ([6]; liver, oral with milk, 10 mg/kg equivalent, read-out: AUC of biodistribution of DTG in liver)?
A: 7200 ± 1400 ng·h/mL

Q: And the AUC ([6]; lungs, IV, 10 mg/kg, read-out: AUC of biodistribution of DTG in lungs)?
A: 4300 ± 680 ng·h/mL

Q: And the AUC ([6]; lungs, oral with milk, 10 mg/kg equivalent, read-out: AUC of biodistribution of DTG in lungs)?
A: 2500 ± 400 ng·h/mL

Q: And the AUC ([6]; uterus, IV, 10 mg/kg, read-out: AUC of biodistribution of DTG in uterus)?
A: 5500 ± 1200 ng·h/mL

Q: What about the AUC ([6]; uterus, oral with milk, 10 mg/kg equivalent, read-out: AUC of biodistribution of DTG in uterus) of the same compound?
A: 1500 ± 400 ng·h/mL
